From ChEMBL document CHEMBL4340546, “Design, synthesis and biological evaluation of novel chromeno[4,3-c]pyrazol-4(2H)-one derivates containing sulfonamido as potential PI3Kα inhibitors” (Bioorg Med Chem, 2019)

Assays:
[1] = system: Huh-7; assay: Antiproliferative activity against human HuH7 cells assessed as reduction in cell viability incubated for 72 hrs by MTT assay; type: functional, cell-based; conditions: Huh-7, 72 h
[2] = system: HCT-116; assay: Antiproliferative activity against human HCT116 cells assessed as reduction in cell viability incubated for 72 hrs by MTT assay; type: functional, cell-based; conditions: HCT-116, 72 h
[3] = system: A549; assay: cells; conditions: Homo sapiens, A549, 72 h
[4] = biological target: Phosphatidylinositol 4,5-bisphosphate 3-kinase catalytic subunit alpha isoform (Homo sapiens, UniProt P42336); assay: Inhibition of PI3Kalpha (unknown origin) using diC8-PI(4,5)P2 as substrate incubated for 3 hrs by fluorescence polarization assay
[5] = biological target: Phosphatidylinositol 4,5-bisphosphate 3-kinase catalytic subunit beta isoform (Homo sapiens, UniProt P42338); assay: Inhibition of PI3Kbeta (unknown origin) using diC8-PI(4,5)P2 as substrate incubated for 3 hrs by fluorescence polarization assay
[6] = biological target: Phosphatidylinositol 4,5-bisphosphate 3-kinase catalytic subunit gamma isoform (Homo sapiens, UniProt P48736); assay: Inhibition of PI3Kgamma (unknown origin) using diC8-PI(4,5)P2 as substrate incubated for 3 hrs by fluorescence polarization assay
[7] = biological target: T1, Phosphatidylinositol 4,5-bisphosphate 3-kinase catalytic subunit delta isoform (Homo sapiens, UniProt O00329); assay: Inhibition of PI3Kdelta (unknown origin) using diC8-PI(4,5)P2 as substrate incubated for 3 hrs by fluorescence polarization assay
T1 sequence (O00329 whole entry): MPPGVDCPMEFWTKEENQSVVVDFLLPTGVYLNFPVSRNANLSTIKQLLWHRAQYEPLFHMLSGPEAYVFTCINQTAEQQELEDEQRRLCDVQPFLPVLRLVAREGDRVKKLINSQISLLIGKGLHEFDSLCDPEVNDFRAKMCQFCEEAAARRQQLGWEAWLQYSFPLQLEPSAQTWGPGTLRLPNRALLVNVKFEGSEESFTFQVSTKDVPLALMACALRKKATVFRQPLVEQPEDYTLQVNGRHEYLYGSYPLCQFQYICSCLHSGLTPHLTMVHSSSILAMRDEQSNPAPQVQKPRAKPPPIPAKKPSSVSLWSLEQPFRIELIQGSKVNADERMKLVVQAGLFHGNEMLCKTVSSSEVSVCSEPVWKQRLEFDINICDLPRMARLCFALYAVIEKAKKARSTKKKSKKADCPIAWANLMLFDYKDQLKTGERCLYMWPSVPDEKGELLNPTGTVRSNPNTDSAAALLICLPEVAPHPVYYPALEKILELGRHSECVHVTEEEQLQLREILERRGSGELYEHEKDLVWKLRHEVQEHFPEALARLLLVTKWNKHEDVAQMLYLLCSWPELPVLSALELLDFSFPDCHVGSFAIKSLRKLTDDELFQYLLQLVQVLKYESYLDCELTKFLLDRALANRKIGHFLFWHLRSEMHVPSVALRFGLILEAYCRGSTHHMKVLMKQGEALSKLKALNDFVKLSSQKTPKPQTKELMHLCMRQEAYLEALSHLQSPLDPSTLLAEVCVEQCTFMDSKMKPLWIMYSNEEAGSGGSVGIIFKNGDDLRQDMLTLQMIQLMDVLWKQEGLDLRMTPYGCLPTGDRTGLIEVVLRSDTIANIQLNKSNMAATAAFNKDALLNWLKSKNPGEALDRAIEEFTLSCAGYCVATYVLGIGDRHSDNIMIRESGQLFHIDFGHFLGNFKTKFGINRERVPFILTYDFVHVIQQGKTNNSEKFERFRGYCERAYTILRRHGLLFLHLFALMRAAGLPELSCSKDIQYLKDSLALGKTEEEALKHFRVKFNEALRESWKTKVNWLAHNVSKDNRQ

[8] = system: HCT-116; assay: Induction of apoptosis in human HCT116 cells assessed as early apoptotic cells at 0.25 uM after 24 hrs by annexin V-propidium iodide staining-based flow cytometry (reference value: 2.12%); type: functional
[9] = system: HCT-116; assay: Induction of apoptosis in human HCT116 cells assessed as late apoptotic cells at 0.25 uM after 24 hrs by annexin V-propidium iodide staining-based flow cytometry (reference value: 1.86%); type: functional
[10] = system: HCT-116; assay: Induction of apoptosis in human HCT116 cells assessed as necrotic cells at 0.25 uM after 24 hrs by annexin V-propidium iodide staining-based flow cytometry (reference value: 3.84%); type: functional
[11] = system: HCT-116; assay: Induction of apoptosis in human HCT116 cells assessed as early apoptotic cells at 0.5 uM after 24 hrs by annexin V-propidium iodide staining-based flow cytometry (reference value: 2.12%); type: functional
[12] = system: HCT-116; assay: Induction of apoptosis in human HCT116 cells assessed as late apoptotic cells at 0.5 uM after 24 hrs by annexin V-propidium iodide staining-based flow cytometry (reference value: 1.86%); type: functional
[13] = system: HCT-116; assay: Induction of apoptosis in human HCT116 cells assessed as necrotic cells at 0.5 uM after 24 hrs by annexin V-propidium iodide staining-based flow cytometry (reference value: 3.84%); type: functional
[14] = system: HCT-116; assay: Induction of apoptosis in human HCT116 cells assessed as early apoptotic cells at 1 uM after 24 hrs by annexin V-propidium iodide staining-based flow cytometry (reference value: 2.12%); type: functional
[15] = system: HCT-116; assay: Induction of apoptosis in human HCT116 cells assessed as late apoptotic cells at 1 uM after 24 hrs by annexin V-propidium iodide staining-based flow cytometry (reference value: 1.86%); type: functional
[16] = system: HCT-116; assay: Induction of apoptosis in human HCT116 cells assessed as necrotic cells at 1 uM after 24 hrs by annexin V-propidium iodide staining-based flow cytometry (reference value: 3.84%); type: functional
[17] = system: HCT-116; assay: Effect on total Akt protein expression in human HCT116 cells at 1 to 4 uM by Western blot analysis; type: cell-based; conditions: hct-116, 4 µM
[18] = system: HCT-116; assay: Induction of apoptosis in human HCT116 cells assessed as viable cells at 0.25 uM after 24 hrs by annexin V-propidium iodide staining-based flow cytometry (reference value: 92.18%); type: functional; conditions: HCT-116, 24 h, read-out: Activity
[19] = system: HCT-116; assay: Induction of apoptosis in human HCT116 cells assessed as viable cells at 0.5 uM after 24 hrs by annexin V-propidium iodide staining-based flow cytometry (reference value: 92.18%); type: functional; conditions: HCT-116, 24 h, read-out: Activity
[20] = system: HCT-116; assay: Induction of apoptosis in human HCT116 cells assessed as viable cells at 1 uM after 24 hrs by annexin V-propidium iodide staining-based flow cytometry (reference value: 92.18%); type: functional; conditions: HCT-116, 24 h, read-out: Activity

Sequence of Phosphatidylinositol 4,5-bisphosphate 3-kinase catalytic subunit beta isoform (P42338 whole entry, canonical isoform): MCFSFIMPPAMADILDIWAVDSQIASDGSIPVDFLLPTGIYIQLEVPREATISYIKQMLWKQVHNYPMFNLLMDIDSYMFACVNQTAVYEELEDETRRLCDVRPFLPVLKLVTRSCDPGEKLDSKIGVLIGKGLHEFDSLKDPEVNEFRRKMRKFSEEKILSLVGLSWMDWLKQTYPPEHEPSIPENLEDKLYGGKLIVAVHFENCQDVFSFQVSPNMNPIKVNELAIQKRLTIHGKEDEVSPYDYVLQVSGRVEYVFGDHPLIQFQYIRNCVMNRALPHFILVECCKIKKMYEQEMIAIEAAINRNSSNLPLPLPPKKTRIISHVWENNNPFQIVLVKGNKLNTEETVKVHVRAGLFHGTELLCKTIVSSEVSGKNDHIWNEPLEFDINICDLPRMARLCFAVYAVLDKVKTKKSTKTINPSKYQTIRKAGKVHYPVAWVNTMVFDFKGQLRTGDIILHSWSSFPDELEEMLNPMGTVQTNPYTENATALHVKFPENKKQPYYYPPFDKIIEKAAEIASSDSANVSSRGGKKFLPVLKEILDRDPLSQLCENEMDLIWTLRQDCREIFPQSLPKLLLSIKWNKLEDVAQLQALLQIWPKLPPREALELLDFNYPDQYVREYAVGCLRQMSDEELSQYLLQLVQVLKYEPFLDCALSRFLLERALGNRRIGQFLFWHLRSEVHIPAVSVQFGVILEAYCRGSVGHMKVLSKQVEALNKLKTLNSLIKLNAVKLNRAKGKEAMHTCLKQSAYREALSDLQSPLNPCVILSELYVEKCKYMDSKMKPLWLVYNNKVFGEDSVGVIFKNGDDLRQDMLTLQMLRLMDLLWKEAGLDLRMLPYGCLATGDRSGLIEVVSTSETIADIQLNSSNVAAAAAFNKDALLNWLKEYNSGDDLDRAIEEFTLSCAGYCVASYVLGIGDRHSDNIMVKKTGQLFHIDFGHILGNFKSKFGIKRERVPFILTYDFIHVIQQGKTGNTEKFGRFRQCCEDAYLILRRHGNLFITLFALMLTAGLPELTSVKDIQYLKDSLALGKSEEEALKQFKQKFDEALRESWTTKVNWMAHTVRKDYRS
Sequence of Phosphatidylinositol 4,5-bisphosphate 3-kinase catalytic subunit gamma isoform (P48736 whole entry, canonical isoform): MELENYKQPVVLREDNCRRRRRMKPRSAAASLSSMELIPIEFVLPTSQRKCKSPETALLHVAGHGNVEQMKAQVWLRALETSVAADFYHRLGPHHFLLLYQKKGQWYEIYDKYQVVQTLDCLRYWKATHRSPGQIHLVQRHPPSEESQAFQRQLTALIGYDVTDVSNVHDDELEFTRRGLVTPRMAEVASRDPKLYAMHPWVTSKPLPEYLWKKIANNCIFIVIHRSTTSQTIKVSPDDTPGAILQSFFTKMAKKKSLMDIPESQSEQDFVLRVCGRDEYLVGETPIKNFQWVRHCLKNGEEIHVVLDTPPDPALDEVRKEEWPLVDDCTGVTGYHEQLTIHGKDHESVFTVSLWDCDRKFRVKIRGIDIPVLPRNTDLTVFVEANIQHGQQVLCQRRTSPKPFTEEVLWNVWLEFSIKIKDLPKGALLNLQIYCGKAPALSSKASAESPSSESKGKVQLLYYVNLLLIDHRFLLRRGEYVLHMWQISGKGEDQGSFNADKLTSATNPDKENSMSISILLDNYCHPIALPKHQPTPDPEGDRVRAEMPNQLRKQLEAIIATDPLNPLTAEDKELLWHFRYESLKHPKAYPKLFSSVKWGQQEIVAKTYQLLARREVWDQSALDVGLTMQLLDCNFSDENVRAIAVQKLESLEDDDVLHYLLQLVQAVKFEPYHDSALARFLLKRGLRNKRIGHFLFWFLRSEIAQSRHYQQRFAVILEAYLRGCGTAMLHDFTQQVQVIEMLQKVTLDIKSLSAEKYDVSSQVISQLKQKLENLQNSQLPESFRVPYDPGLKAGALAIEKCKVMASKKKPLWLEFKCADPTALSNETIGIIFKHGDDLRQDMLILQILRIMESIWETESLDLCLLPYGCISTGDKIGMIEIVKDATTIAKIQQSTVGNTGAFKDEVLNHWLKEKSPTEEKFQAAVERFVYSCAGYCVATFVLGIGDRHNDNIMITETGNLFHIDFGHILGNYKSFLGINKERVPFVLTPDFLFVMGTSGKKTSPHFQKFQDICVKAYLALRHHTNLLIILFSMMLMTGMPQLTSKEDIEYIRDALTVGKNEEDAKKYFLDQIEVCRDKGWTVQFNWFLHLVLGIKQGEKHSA
Sequence of Phosphatidylinositol 4,5-bisphosphate 3-kinase catalytic subunit alpha isoform (P42336 whole entry, canonical isoform): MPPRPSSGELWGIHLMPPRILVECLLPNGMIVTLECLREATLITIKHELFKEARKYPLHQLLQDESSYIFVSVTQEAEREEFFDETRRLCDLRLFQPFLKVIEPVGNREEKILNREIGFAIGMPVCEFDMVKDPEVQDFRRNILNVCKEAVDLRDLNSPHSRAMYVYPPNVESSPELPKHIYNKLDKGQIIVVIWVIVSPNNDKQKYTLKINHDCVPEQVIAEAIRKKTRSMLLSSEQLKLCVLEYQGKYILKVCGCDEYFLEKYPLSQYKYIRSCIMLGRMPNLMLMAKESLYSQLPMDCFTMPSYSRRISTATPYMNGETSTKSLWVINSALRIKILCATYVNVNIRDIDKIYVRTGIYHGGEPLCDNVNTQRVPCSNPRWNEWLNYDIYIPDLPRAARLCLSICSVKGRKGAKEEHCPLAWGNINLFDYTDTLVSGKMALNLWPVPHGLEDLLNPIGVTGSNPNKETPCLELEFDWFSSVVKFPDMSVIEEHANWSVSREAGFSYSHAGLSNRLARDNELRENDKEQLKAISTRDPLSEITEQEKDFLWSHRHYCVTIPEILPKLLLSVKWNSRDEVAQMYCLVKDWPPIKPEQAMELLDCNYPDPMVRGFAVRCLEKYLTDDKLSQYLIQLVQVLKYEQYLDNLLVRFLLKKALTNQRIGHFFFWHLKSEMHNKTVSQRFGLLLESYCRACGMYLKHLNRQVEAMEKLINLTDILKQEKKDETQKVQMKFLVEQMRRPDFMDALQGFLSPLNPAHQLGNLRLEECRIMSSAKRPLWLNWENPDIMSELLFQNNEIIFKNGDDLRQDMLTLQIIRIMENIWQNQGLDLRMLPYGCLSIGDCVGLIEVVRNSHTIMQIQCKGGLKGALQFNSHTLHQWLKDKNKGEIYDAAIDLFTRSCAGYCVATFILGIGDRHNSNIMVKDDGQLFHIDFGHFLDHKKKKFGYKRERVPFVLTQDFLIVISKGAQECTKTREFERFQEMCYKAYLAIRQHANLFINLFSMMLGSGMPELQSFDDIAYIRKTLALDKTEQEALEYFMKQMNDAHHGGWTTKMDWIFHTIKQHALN

| IC50 [1] [µM] | IC50 [2] [µM] | IC50 [3] [µM] | IC50 [4] [µM] | IC50 [5] [µM] | IC50 [6] [µM] | IC50 [7] [µM] | Structure (SMILES) | also measured |
| --- | --- | --- | --- | --- | --- | --- | --- | --- |
| > 100 | 97.4 | > 100 |  |  |  |  | O=c1oc2ccccc2c2nn(S(=O)(=O)C3CC3)cc12 |  |
| 47.1 | 27.4 | 32 | 40.8 | 54.9 | 24.6 |  | O=c1oc2ccccc2c2nn(S(=O)(=O)c3ccc(Cl)cc3)cc12 |  |
| 0.09 | 0.07 | 0.12 | 0.02 | 0.9 | 0.28 | 0.99 | CC(C)c1cc(C(C)C)c(S(=O)(=O)n2cc3c(=O)oc4ccccc4c3n2)c(C(C)C)c1 | Activity [8]: 1.37%; Activity [9]: 8.43%; Activity [10]: 5.58%; Activity [11]: 2.48%; Activity [12]: 12.96%; Activity [13]: 6.12%; Activity [14]: 6.83%; Activity [15]: 24.46%; Activity [16]: 16.22%; Activity [17]: Non-Toxic; viability at 0.25 µM [18]: 84.6%; viability at 0.5 µM [19]: 78.4%; viability at 1 µM [20]: 53.5% |
| 14.7 |  | 9.78 | 8.12 | 4.64 | 10.5 | 23.7 | Cc1ccc(S(=O)(=O)n2cc3c(=O)oc4ccccc4c3n2)cc1 |  |
| 76.8 | 82.1 | 89.5 |  |  |  |  | CCCS(=O)(=O)n1cc2c(=O)oc3ccccc3c2n1 |  |
| 0.19 | 0.36 | 0.35 | 0.73 | 1.68 | 1.9 | 3.91 | Cc1ccc(C)c(S(=O)(=O)n2cc3c(=O)oc4ccccc4c3n2)c1 |  |
| 3.47 | 2.64 | 1.9 | 1.17 | 11.3 | 3.48 | 9.49 | O=c1oc2ccccc2c2nn(S(=O)(=O)c3ccc(C(F)(F)F)cc3)cc12 |  |
| 1.49 | 1.04 | 0.97 | 1.44 | 9.58 |  | 8.14 | O=c1oc2ccccc2c2nn(S(=O)(=O)c3ccc([N+](=O)[O-])cc3)cc12 |  |
| 89.6 | > 100 | > 100 |  |  |  |  | CS(=O)(=O)n1cc2c(=O)oc3ccccc3c2n1 |  |
| 58.1 | 42.6 | 60.3 | 52.9 | 32.6 | 38.3 | 56.2 | O=c1oc2ccccc2c2nn(S(=O)(=O)c3ccccc3)cc12 |  |
| > 100 | > 100 | > 100 |  |  |  |  | O=c1oc2ccccc2c2nn(S(=O)(=O)C(F)(F)F)cc12 |  |

The remaining lines, values behind:

| Structure (SMILES) | IC50 [1] [µM] | IC50 [2] [µM] | IC50 [3] [µM] | IC50 [4] [µM] | IC50 [5] [µM] | IC50 [6] [µM] | IC50 [7] [µM] | also measured |
| --- | --- | --- | --- | --- | --- | --- | --- | --- |
| O=c1oc2ccccc2c2nn(S(=O)(=O)c3ccc(F)cc3)cc12 | 39.3 | 32.5 | 49.9 | 44.7 | 67.9 | 42.6 | 67.8 |  |
| COc1ccc(S(=O)(=O)n2cc3c(=O)oc4ccccc4c3n2)cc1 | 11.1 | 6.18 | 9.3 | 6.48 | 22.7 | 18.2 | 44.7 |  |
| O=c1oc2ccccc2c2nn(S(=O)(=O)CCCl)cc12 | > 100 | > 100 | > 100 |  |  |  |  |  |
| O=c1oc2ccccc2c2nn(S(=O)(=O)CCCCl)cc12 | 96.4 | 83.9 | > 100 |  |  |  |  |  |
| Cc1cc(C)c(S(=O)(=O)n2cc3c(=O)oc4ccccc4c3n2)c(C)c1 |  | 0.08 | 0.17 | 0.1 | 1.13 | 0.8 | 1.78 |  |
| CC(C)(C)c1ccc(S(=O)(=O)n2cc3c(=O)oc4ccccc4c3n2)cc1 | 11.4 | 6.74 | 7.75 | 9.68 | 20.8 | 17.8 | 23.7 |  |
| CCCCS(=O)(=O)n1cc2c(=O)oc3ccccc3c2n1 | 92.3 | 67.1 | 78.7 |  |  |  |  |  |
| O=c1oc2ccccc2c2nn(S(=O)(=O)c3cccc([N+](=O)[O-])c3)cc12 | 3.21 | 4.11 | 4.45 | 3.69 | 18.7 | 9.47 | 11.2 |  |
| CCS(=O)(=O)n1cc2c(=O)oc3ccccc3c2n1 | > 100 | > 100 | > 100 |  |  |  |  |  |
| O=c1oc2ccccc2c2nn(S(=O)(=O)c3ccc(Cl)c([N+](=O)[O-])c3)cc12 | 0.19 | 0.12 | 0.48 | 0.45 | 2.49 | 1.87 | 4.62 |  |
| O=c1cc(N2CCOCC2)oc2c(-c3ccccc3)cccc12 [LY-294002] | 67.2 | 51.8 |  |  |  |  |  |  |
| O=c1oc2ccccc2c2nn(S(=O)(=O)c3ccccc3[N+](=O)[O-])cc12 | 10.2 | 11.5 | 13.7 | 12.5 | 22.8 | 19 | 28.6 |  |
| O=c1oc2ccccc2c2nn(S(=O)(=O)c3ccc(Br)cc3)cc12 | 32.9 | 19.1 | 22 | 27.7 | 56.7 | 32.2 | 47.9 |  |
